# Literature values, collected in patent publication US20050026813A1, “Antibiotic-metal complexes in the detection of gram-positive bacteria and other biological analytes” (priority 2003, published 2005).
# Assays:
# [1] = test system: anaerobes and gram-positive aerobes
# [2] = test system: Bacillus subtilis ATCC 6633
# [3] = test system: Micrococcus luteus
# [4] = test system: Staph. aureus V573 MR
# [5] = test system: Streptococcus pyogenes CN10
# [6] = test system: Staphylococcus aureus SR14
# [7] = test system: S. aureus SR2030; conditions: S. aureus SR2030 in mice, s.c.
# [8] = test system: gram-positive bacteria; conditions: in words
# [9] = test system: Staphylococcus aureus; conditions: systemic infections in mice
# [10] = test system: Streptococcus pyogenes; conditions: systemic infections in mice
# [11] = test system: Strep pneumoniae; conditions: systemic infections in mice
# [12] = systemic infections in mice, Enterobacter faecalis
# [13] = test system: laboratory strains of aerobic and anaerobic gram-positive bacteria
# [14] = test system: subcutaneous and urinary tract infections
# [15] = test system: multi-drug resistant strains of Haemophilus influenzae and Moraxella catarrhalis
# [16] = test system: Staphylococcus aureus Oxford
# [17] = test system: Strep. faecalis I
# [18] = test system: S. aureus Sank 70175
# [19] = test system: Mycobacterium smegmatis ATCC 607
# [20] = test system: Enterococcus faecalis subsp. Liquifaciens S-299
# [21] = test system: Staphylococcus aureus 56; conditions: mice infected with Staphylococcus aureus 56
# [22] = test system: Staphylococcus aureus SG511
# [23] = test system: S. aureus 285
# [24] = test system: S. aureus 503
# [25] = test system: Streptococcus pyogenes 77A
# [26] = test system: Bacillus subtilis
molecule,measurement,setting,value
"COC(C)C(NC(=O)C1CCCN1C)C1OC(SC)C(O)C(O)C1O (stereo not shown) [BU-2545, 7-O-methyl-4′-de-n-propyllincomycin]",antibacterial activity,[1],exhibits antibacterial activity
CCCCCCCCCC(=O)NC1C(O[C@@H]2c3cc(Cl)c(c(Cl)c3)Oc3cc4cc(c3OC3OC(CO)C(O)C(O)C3O)Oc3ccc(cc3Cl)[C@@H](O)[C@H]3NC(=O)[C@H](NC)c5ccc(O)c(c5)Oc5cc(O)c(Cl)c(c5)C(NC3=O)C(=O)NC4C(=O)N[C@H]3C(=O)N[C@@H]2C(O)N[C@H](C(=O)O)c2cc(O)cc(O)c2-c2cc3cc(Cl)c2OC2OC(CO)C(O)C(O)C2O)OC(C(=O)O)C(O)C1O (stereo partly shown) [MM 55268],MIC,[2],2 microgram/ml
same,MIC,[3],2 microgram/ml
same,MIC,[4],1 microgram/ml
same,MIC,[5],0.25 microgram/ml
CNC(CC(C)C)C(=O)NC1C(=O)NC(CC(N)=O)C(=O)NCC2C(=O)NC3CC/C=C\C=C(\O)CCc4c(O)cc(O)cc4C(C(=O)O)NCC(=O)C(CC(OC4CC(C)(N)C(O)C(C)O4)CC/C=C\COC4=C(OC5OC(CO)C(O)C(O)C5OC5CC(C)(N)C(O)C(C)O5)C(=CC2C=C4)OC/C=C\CCC1O)NCC3=O (stereo not shown) [PA-42867],MIC,[6],0.78 microgram/ml
same,ED50,[7],2.31 mg/kg
same,activity against gram-positive bacteria,[8],potent activity
CN[C@H](CC(C)C)C(=O)N[C@H]1C(=O)N[C@@H](CC(N)=O)C(=O)N[C@H]2C(=O)NC3C(=O)N[C@@H](C[C@H](OC4C[C@@H](C)C(O)C(C)O4)c4ccc(c(Cl)c4)Oc4cc2cc(c4OC2OC(CO)C(O)C(O)C2O)OC2CC=C(C=C2Cl)C1O)C(=O)N[C@H](C(=O)O)c1cc(O)cc(O)c1-c1cc3ccc1O (stereo partly shown) [S-3662],ED50,[9],2.63 mg/kg
same,ED50,[10],0.49 mg/kg
same,ED50,[11],0.39 mg/kg
same,ED50,[12],0.95 mg/kg
same,activity compared with vancomycin,[13],superior to vancomycin
same,therapeutic efficacy,[14],showed therapeutic efficacy
C[C@@H]1CN(c2c(F)c(N)c3c(=O)c(C(=O)O)cn(C4CC4)c3c2F)C[C@H](C)N1 [sparfloxacin],in vitro activity,[15],highly active
CN[C@H](CC(C)C)C(=O)N[C@H]1C(=O)N[C@@H](CC(N)=O)C(=O)N[C@H]2C(=O)N[C@H]3C(=O)N[C@H](C(=O)N[C@H](C(=O)O)c4cc(O)cc(O)c4-c4cc3ccc4O)[C@H](O)c3ccc(c(Cl)c3)Oc3cc2cc(c3O[C@@H]2O[C@H](CO)[C@@H](O)[C@H](O)[C@H]2O[C@H]2C[C@](C)(N)[C@H](O)[C@H](C)O2)Oc2ccc(cc2Cl)[C@H]1O [vancomycin],MIC,[2],0.25 microgram/ml
same,MIC,[3],2 microgram/ml
same,MIC,[16],2 microgram/ml
same,MIC,[4],2 microgram/ml
same,MIC,[5],1 microgram/ml
same,MIC,[17],2 microgram/ml
"avoparcin alpha, 49-chloro-4B,50-di-O-alpha-D-mannopyranosyl- [Galacardin A]",MIC,[18],6.25 microgram/ml
same,MIC,[19],25.0 microgram/ml
same,MIC,[20],6.25 microgram/ml
same,in vivo efficacy (ED50),[21],19.0 mg/kg
des-methyl-balhimycin,MIC,[22],0.1 microgram/ml
same,MIC,[23],0.1 microgram/ml
same,MIC,[24],0.05 microgram/ml
same,MIC,[25],0.05 microgram/ml
"vancomycin,22-O-(3-amino-2,3,6-trideoxy-3-C-methyl-alpha-D-arabino-hexopyranosyl)-2′-O-de(3-amino-2,3,6-trideoxy-3-C-methyl-alpha-L-lyxoyranosyl)-10,19-didechloro-2′-O-(6-deoxy-alpha-D-talopyranosyl)- [MM-49721]",MIC,[26],2 microgram/ml
same,activity against gram-positive bacteria,[8],good activity
